Experimental data reported in patent US9422267B2, “Fused pyrimidine compounds and use thereof” (Medivation Technologies, Inc., priority 2012, dated 2016).
Values belong to the molecule of their own block, whether it stands above or below them.

Tests used:
EPHA5 = EPHA5 (Homo sapiens, UniProt P54756); assay: Caliper kinase profiling: EPHA5; format: biochemical; settings: EPHA5, 1 μM; read-out: Average % Inh @ 1 μM
MST1 = target: T1, MST1 (Homo sapiens, UniProt Q13043); assay: Caliper kinase profiling: MST1; format: biochemical
T1 sequence (Q13043 1-487): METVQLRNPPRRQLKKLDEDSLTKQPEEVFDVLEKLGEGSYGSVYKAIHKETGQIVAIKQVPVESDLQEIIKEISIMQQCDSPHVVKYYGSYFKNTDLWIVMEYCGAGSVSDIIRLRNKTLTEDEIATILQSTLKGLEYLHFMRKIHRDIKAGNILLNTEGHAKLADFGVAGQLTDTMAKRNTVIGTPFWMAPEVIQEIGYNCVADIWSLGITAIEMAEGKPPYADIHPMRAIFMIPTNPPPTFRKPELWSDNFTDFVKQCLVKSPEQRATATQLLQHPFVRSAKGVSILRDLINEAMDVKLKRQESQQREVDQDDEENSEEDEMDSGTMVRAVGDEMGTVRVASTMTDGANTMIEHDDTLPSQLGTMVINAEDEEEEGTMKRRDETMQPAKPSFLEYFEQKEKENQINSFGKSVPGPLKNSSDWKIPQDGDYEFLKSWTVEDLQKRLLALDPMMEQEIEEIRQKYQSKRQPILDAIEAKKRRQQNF

KDR = KDR (Homo sapiens, UniProt P35968); assay: Caliper kinase profiling: KDR; format: biochemical; settings: read-out: Average % Inh @ 1 μM
Protocol: The compound was tested at concentrations of 1.0×10^−8 and 1.0×10^−9 M in the RapidKinase192™ panel in duplicate. […] The screening was performed using the Caliper EZReader2, a 4-sipper LabChip, and ProfilerPro Kinase Selectivity Assay Kits 1 and 2. The assay measures the conversion of a fluorescent peptide substrate to a phosphorylated product. Briefly, the reaction mixture was introduced through a capillary sipper onto the microfluidic chip, where the substrate and product were electrophoretically separated and detected by laser-induced fluorescence. The time-dependent fluorescence signal indicates the extent of the reaction.

TYRO3 = target: T2, TYRO3 (Homo sapiens, UniProt Q06418); assay: Caliper kinase profiling: TYRO3; format: biochemical
T2 sequence (Q06418 41-890): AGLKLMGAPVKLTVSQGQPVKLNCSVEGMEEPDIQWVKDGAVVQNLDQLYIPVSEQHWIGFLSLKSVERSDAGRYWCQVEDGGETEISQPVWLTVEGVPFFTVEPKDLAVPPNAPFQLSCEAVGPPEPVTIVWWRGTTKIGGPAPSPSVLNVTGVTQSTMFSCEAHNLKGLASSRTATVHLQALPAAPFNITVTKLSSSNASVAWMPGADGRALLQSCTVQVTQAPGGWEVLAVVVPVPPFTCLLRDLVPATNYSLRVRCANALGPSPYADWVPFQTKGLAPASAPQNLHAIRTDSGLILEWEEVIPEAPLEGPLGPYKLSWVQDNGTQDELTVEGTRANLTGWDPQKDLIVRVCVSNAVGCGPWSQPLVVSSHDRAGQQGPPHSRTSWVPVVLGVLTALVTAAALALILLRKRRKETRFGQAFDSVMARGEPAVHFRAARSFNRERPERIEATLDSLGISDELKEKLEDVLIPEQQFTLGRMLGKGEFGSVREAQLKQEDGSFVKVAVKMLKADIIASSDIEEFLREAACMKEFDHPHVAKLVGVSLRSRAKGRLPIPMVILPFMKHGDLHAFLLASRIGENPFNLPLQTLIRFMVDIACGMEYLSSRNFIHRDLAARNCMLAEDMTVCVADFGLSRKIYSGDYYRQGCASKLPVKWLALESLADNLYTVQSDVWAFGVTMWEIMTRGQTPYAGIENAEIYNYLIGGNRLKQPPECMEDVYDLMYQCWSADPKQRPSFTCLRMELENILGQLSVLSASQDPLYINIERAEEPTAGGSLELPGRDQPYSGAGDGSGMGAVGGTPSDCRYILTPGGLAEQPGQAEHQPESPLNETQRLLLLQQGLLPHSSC

RET(Y791F) = RET(Y791F) (Homo sapiens, UniProt P07949, Y791F); assay: Caliper kinase profiling: RET(Y791F); format: biochemical
FLT4 = FLT4 (Homo sapiens, UniProt P35916); assay: Caliper kinase profiling: FLT4; format: biochemical; settings: FLT4, 1 μM; read-out: Average % Inh @ 1 μM
MET(M1250T) = MET(M1250T) (Homo sapiens, UniProt P08581, M1250T); assay: Caliper kinase profiling: MET(M1250T); format: biochemical
MST2 = target: T3, MST2 (Homo sapiens, UniProt Q13188); assay: Caliper kinase profiling: MST2; format: biochemical
T3 sequence (Q13188 1-491): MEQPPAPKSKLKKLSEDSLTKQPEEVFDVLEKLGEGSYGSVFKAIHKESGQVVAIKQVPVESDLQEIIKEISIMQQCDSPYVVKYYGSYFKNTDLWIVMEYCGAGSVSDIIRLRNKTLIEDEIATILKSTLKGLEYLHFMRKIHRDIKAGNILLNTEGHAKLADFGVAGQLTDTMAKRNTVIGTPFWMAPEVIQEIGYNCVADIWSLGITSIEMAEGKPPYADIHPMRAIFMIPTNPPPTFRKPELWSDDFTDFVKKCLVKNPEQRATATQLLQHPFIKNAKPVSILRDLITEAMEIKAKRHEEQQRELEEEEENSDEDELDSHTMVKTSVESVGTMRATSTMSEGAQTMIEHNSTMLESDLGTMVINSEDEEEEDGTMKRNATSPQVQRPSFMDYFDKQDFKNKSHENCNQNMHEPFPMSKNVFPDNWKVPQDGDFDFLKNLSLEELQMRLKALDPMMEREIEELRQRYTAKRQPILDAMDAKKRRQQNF

ABL = target: T4, ABL (Homo sapiens, UniProt P00519); assay: Caliper kinase profiling: ABL; format: biochemical; settings: read-out: Average % Inh @ 1 μM
T4 construct: purchased Caliper LifeSciences (ProfilerPro Kinase Selectivity Assay Kits)

EPHB2 = EPHB2 (Homo sapiens, UniProt P29323); assay: Caliper kinase profiling: EPHB2; format: biochemical; settings: EPHB2, 1 μM; read-out: Average % Inh @ 1 μM
PANC-1 = assay: Cell viability: pancreatic cancer cell line PANC-1; format: cell-based; settings: Homo sapiens; PANC-1 pancreatic cancer cell line
Protocol: This assay quantitates the ATP present in order to determine the number of viable cells in culture. Briefly, the compounds were incubated with the cells for 72 h, followed by cell lysis. The resulting luminescent signal is proportional to the amount of ATP present and, therefore, directly proportional to the number of cells present in culture.
Analogous studies utilizing pancreatic cancer cell lines such as ASPC-1 and PANC-1 can be performed with compounds of the invention.

Sequence of MET(M1250T) (P08581 25-1390 M1250T): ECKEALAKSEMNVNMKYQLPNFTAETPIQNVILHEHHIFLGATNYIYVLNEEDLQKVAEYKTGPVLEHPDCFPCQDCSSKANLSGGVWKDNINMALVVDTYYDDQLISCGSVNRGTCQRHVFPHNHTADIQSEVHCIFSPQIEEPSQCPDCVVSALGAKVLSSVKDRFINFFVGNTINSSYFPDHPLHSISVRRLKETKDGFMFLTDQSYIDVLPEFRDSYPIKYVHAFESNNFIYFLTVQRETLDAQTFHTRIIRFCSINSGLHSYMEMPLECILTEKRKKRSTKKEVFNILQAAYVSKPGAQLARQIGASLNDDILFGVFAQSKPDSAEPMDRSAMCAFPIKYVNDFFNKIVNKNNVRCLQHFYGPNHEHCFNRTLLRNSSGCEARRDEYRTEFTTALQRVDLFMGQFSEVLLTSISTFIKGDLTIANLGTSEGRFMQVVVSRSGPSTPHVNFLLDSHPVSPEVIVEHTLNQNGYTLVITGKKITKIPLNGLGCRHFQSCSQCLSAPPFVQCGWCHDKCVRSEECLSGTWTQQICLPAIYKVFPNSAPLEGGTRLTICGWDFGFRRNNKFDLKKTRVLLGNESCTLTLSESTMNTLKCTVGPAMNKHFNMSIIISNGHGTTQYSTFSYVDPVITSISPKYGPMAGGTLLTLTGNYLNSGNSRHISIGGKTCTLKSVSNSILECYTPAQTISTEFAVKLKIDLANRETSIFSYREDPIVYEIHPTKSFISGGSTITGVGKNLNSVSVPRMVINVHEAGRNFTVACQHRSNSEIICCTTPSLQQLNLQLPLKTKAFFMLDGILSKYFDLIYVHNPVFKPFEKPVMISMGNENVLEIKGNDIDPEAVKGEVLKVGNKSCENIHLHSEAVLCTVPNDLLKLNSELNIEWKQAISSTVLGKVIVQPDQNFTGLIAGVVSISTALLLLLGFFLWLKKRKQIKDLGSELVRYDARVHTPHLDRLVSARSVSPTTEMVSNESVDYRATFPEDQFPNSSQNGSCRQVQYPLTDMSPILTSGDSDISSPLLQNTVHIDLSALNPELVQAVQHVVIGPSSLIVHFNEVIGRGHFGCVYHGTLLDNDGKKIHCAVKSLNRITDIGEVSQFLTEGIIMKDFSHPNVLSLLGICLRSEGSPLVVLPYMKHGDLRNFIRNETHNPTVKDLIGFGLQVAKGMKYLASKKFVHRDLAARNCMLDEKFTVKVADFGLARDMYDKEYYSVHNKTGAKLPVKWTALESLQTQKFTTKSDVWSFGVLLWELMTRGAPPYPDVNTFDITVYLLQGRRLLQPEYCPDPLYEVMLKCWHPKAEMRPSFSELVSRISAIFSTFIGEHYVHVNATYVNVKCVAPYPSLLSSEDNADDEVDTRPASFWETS
Sequence of RET(Y791F) (P07949 29-1114 Y791F): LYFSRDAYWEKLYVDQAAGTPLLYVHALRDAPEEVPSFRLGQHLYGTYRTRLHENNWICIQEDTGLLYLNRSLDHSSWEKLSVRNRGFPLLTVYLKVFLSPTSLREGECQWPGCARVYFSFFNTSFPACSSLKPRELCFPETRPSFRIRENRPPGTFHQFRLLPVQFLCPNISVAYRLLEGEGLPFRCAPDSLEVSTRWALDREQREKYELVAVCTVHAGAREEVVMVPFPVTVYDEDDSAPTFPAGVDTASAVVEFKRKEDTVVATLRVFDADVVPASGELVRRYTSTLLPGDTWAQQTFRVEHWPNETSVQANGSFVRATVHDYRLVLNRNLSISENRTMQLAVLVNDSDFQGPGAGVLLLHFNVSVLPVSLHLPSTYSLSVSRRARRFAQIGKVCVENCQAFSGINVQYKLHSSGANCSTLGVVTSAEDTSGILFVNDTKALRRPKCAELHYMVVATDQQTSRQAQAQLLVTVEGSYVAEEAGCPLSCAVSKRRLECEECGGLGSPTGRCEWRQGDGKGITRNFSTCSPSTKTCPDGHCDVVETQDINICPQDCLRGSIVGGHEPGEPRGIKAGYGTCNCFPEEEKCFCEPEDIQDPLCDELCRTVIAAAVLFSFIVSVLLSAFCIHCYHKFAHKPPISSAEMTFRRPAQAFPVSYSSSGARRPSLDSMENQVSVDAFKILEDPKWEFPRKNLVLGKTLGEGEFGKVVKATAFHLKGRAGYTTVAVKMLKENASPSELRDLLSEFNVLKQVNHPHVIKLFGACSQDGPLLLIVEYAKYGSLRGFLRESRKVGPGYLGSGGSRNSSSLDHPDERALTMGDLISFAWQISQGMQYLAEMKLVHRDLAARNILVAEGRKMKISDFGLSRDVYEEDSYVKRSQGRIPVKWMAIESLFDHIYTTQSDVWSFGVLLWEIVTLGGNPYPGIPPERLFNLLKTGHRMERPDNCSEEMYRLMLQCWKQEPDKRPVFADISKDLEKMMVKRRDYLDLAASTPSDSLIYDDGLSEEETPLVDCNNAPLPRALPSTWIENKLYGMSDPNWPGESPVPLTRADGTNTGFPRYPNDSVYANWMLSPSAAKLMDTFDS
Sequence of FLT4 (P35916 25-1363): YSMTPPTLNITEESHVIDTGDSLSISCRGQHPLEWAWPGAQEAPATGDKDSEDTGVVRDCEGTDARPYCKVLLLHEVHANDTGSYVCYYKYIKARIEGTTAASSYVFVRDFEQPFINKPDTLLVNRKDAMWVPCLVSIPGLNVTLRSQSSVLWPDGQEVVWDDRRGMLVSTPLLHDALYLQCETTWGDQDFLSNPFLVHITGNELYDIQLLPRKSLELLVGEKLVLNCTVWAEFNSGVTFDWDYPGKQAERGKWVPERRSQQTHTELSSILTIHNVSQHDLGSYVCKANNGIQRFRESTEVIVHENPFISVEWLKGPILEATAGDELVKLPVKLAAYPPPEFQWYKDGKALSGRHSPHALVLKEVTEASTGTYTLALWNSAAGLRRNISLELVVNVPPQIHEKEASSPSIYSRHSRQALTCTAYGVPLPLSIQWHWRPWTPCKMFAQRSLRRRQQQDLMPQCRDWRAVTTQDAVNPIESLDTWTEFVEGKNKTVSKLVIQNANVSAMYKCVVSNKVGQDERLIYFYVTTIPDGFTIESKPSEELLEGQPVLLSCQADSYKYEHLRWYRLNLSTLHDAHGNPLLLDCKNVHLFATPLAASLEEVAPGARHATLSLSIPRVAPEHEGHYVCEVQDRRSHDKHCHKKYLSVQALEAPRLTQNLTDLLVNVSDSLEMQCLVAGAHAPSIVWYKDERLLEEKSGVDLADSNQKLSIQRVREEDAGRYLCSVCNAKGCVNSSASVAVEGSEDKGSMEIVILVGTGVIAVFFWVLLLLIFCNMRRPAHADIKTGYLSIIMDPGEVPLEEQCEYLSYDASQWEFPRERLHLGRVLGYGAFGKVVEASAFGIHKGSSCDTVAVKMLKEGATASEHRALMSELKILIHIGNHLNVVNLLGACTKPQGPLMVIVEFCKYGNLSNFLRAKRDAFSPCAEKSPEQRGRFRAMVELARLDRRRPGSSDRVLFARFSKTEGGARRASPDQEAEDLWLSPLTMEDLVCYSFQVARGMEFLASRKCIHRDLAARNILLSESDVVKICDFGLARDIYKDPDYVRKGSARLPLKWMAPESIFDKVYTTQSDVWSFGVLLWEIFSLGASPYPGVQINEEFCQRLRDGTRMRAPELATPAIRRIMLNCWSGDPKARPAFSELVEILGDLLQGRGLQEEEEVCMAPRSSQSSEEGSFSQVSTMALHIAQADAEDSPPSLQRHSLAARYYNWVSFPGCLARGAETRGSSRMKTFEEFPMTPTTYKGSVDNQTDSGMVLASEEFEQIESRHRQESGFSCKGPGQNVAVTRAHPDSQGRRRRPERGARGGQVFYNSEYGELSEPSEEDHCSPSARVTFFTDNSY
Sequence of KDR (P35968 20-1356): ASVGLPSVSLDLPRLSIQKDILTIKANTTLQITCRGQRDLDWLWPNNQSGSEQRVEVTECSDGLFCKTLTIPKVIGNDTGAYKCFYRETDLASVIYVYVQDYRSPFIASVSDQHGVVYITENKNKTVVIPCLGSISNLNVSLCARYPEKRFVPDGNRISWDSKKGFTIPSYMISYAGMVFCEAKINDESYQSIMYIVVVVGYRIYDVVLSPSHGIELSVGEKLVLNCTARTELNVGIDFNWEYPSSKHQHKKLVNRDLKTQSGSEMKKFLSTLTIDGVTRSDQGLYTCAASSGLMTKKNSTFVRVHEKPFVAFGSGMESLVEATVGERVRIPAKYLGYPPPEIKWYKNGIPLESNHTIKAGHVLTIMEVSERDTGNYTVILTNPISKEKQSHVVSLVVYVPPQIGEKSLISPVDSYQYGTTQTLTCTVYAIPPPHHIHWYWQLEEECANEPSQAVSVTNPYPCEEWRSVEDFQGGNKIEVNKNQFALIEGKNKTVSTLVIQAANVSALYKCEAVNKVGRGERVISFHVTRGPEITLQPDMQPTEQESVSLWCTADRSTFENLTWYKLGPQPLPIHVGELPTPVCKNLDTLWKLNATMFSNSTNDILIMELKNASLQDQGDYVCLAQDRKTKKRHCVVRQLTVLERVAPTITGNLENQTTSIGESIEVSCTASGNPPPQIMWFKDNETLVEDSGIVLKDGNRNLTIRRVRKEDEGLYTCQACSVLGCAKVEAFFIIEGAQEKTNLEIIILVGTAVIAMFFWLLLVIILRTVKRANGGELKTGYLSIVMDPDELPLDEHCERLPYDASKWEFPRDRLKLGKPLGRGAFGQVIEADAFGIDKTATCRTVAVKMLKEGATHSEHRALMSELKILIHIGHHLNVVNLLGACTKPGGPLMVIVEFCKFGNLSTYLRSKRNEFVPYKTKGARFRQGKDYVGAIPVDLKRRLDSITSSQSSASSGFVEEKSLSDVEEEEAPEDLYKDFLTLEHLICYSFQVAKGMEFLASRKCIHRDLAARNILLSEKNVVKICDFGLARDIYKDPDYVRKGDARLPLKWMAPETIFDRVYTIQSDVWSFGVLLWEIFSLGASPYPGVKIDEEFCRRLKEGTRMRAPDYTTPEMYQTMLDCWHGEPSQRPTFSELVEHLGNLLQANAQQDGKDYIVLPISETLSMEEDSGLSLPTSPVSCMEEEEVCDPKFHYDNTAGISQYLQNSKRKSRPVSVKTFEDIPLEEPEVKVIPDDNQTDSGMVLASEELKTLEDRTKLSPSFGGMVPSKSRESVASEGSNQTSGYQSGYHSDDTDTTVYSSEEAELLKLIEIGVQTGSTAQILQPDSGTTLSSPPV

inhibition at 1 µM (EPHA5): > 60%
inhibition at 0.01 µM (MST1; MST1, 10 nM, read-out: Average % Inh @ 10 nM): < 39%
inhibition at 0.1 µM (MST1; MST1, 100 nM, read-out: Average % Inh @ 100 nM): 40 to 59%
inhibition at 1 µM (MST1; MST1, 1 μM, read-out: Average % Inh @ 1 μM): > 60%
inhibition at 1 µM (KDR): 40 to 59%
inhibition at 0.01 µM (TYRO3; TYRO3, 10 nM, read-out: Average % Inh @ 10 nM): < 39%
inhibition at 0.1 µM (TYRO3; TYRO3, 100 nM, read-out: Average % Inh @ 100 nM): < 39%
inhibition at 1 µM (TYRO3; TYRO3, 1 μM, read-out: Average % Inh @ 1 μM): > 60%
inhibition at 0.01 µM (RET(Y791F); 10 nM, read-out: Average % Inh @ 10 nM): < 39%
inhibition at 0.1 µM (RET(Y791F); 100 nM, read-out: Average % Inh @ 100 nM): 40 to 59%
inhibition at 1 µM (RET(Y791F); 1 μM, read-out: Average % Inh @ 1 μM): > 60%
inhibition at 1 µM (FLT4): 40 to 59%
inhibition at 0.01 µM (MET(M1250T); MET M1250T, 10 nM, read-out: Average % Inh @ 10 nM): < 39%
inhibition at 0.1 µM (MET(M1250T); MET M1250T, 100 nM, read-out: Average % Inh @ 100 nM): < 39%
inhibition at 1 µM (MET(M1250T); MET(M1250T), 1 μM, read-out: Average % Inh @ 1 μM): > 60%
inhibition at 0.01 µM (MST2; MST2, 10 nM, read-out: Average % Inh @ 10 nM): < 39%
inhibition at 0.1 µM (MST2; MST2, 100 nM, read-out: Average % Inh @ 100 nM): < 39%
inhibition at 1 µM (MST2; MST2, 1 μM, read-out: Average % Inh @ 1 μM): > 60%
inhibition at 1 µM (ABL): 40 to 59%
inhibition at 1 µM (EPHB2): > 60%
SMILES: O=C(Nc1ccc(F)nc1)C1CCCN1c1nc2c(c(Nc3cc(C4CC4)[nH]n3)n1)CCC2 (single isomer, unassigned) [Compound 2b, 1-(4-(5-cyclopropyl-1H-pyrazol-3-ylamino)-6,7-dihydro-5H-cyclopenta[d]pyrimidin-2-yl)-N-(6-fluoropyridin-3-yl)pyrrolidine-2-carboxamide]

IC50 (PANC-1): 3.66 µM
SMILES: CC(C)c1cc(Nc2nc(N3CCCC3C(=O)Nc3ccc(F)nc3)nc3c2CCC3)n[nH]1 (single isomer, unassigned) [Compound 8b]
